# ChEMBL document CHEMBL4308908, “Lamellarin-inspired potent topoisomerase I inhibitors with the unprecedented benzo[g][1]benzopyrano[4,3-b]indol-6(13H)-one scaffold” (Bioorg Med Chem, 2019)
# The source made the active and inactive calls. The calls are words filed in the database; no cut-off is given here.
# How the values were obtained:
# [1] = target: T1, DNA topoisomerase I (Bos taurus) (UniProt F1MN93); experiment: Inhibition of calf thymus DNA topoisomerase 1 assessed as reduction in enzyme-mediated relaxation of supercoiled pBR322 plasmid DNA at 10 uM after 30 mins by agarose gel electrophoresis
# T1 sequence (whole entry): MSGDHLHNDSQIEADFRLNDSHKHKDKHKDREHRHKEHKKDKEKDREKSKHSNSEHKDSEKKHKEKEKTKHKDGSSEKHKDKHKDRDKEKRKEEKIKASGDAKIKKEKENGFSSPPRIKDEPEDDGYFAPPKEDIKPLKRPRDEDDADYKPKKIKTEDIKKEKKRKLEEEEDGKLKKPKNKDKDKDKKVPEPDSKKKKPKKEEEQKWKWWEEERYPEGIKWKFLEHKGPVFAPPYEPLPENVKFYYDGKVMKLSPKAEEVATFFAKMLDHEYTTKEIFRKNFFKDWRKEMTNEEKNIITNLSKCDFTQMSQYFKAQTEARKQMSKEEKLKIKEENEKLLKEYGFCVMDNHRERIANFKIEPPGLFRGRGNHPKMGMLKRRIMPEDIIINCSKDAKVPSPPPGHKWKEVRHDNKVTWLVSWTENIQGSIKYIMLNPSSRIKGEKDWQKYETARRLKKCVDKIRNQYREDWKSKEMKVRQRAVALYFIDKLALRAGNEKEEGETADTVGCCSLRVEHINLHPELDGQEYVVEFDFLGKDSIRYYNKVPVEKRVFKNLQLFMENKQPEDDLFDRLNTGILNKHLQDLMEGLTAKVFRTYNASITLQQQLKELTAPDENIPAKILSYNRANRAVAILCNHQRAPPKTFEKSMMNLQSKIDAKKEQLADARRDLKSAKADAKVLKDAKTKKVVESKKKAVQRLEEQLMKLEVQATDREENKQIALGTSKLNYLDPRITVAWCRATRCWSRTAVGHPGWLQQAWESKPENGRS
# [2] = target: T1, DNA topoisomerase I (Bos taurus); experiment: Inhibition of calf thymus DNA topoisomerase 1 assessed as reduction in enzyme-mediated relaxation of supercoiled pBR322 plasmid DNA at 10 uM after 30 mins by ethidium bromide staining-based agarose gel electrophoresis
# MCF7 = experiment: Antiproliferative activity against human MCF7 cells after 48 hrs by SRB assay; format: functional; settings: MCF7, 48 h
# U-251 = experiment: Antiproliferative activity against human U251 cells after 48 hrs by SRB assay; format: functional; settings: U-251, 48 h
# HCT-116 = experiment: Antiproliferative activity against human HCT116 cells after 48 hrs by SRB assay; format: functional; settings: HCT-116, 48 h
# NCI-H522 = experiment: Antiproliferative activity against human NCI-H522 cells after 48 hrs by SRB assay; format: functional; settings: NCI-H522, 48 h
# LOX IMVI = experiment: Antiproliferative activity against human LOXIMVI cells after 48 hrs by SRB assay; format: functional
# SK-OV-3 = experiment: Antiproliferative activity against human SKOV3 cells after 48 hrs by SRB assay; format: functional; settings: SK-OV-3, 48 h
# ACHN = experiment: Antiproliferative activity against human ACHN cells after 48 hrs by SRB assay; format: functional
# MKN-28 = experiment: Antiproliferative activity against human MKN28 cells after 48 hrs by SRB assay; format: functional; settings: MKN-28, 48 h
# DU-145 = experiment: Antiproliferative activity against human DU145 cells after 48 hrs by SRB assay; format: functional; settings: DU-145, 48 h
# [3] = Antiproliferative activity against human HBC4 cells after 48 hrs by SRB assay; format: functional; settings: HBC4, 48 h
# [4] = Antiproliferative activity against human BSY1 cells after 48 hrs by SRB assay; format: functional; settings: BSY-1, 48 h
# [5] = Antiproliferative activity against human HBC5 cells after 48 hrs by SRB assay; format: functional; settings: HBC5, 48 h
# MDA-MB-231 = experiment: Antiproliferative activity against human MDA-MB-231 cells after 48 hrs by SRB assay; format: functional; settings: MDA-MB-231, 48 h
# SF-268 = experiment: Antiproliferative activity against human SF268 cells after 48 hrs by SRB assay; format: functional; settings: SF-268, 48 h
# SF-295 = experiment: Antiproliferative activity against human SF295 cells after 48 hrs by SRB assay; format: functional; settings: SF-295, 48 h
# SF-539 = experiment: Antiproliferative activity against human SF539 cells after 48 hrs by SRB assay; format: functional; settings: SF-539, 48 h
# SNB-75 = experiment: Antiproliferative activity against human SNB75 cells after 48 hrs by SRB assay; format: functional; settings: SNB-75, 48 h
# SNB-78 = experiment: Antiproliferative activity against human SNB78 cells after 48 hrs by SRB assay; format: functional; settings: SNB-78, 48 h
# HCC 2998 = experiment: Antiproliferative activity against human HCC2998 cells after 48 hrs by SRB assay; format: functional; settings: HCC 2998, 48 h
# KM12 = experiment: Antiproliferative activity against human KM12 cells after 48 hrs by SRB assay; format: functional; settings: KM12, 48 h
# HT-29 = experiment: Antiproliferative activity against human HT-29 cells after 48 hrs by SRB assay; format: functional; settings: HT-29, 48 h
# HCT-15 = experiment: Antiproliferative activity against human HCT15 cells after 48 hrs by SRB assay; format: functional; settings: HCT-15, 48 h
# NCI-H23 = experiment: Antiproliferative activity against human NCI-H23 cells after 48 hrs by SRB assay; format: functional; settings: NCI-H23, 48 h
# NCI-H226 = experiment: Antiproliferative activity against human NCI-H226 cells after 48 hrs by SRB assay; format: functional; settings: NCI-H226, 48 h
# NCI-H460 = experiment: Antiproliferative activity against human NCI-H460 cells after 48 hrs by SRB assay; format: functional; settings: NCI-H460, 48 h
# A549 = experiment: Antiproliferative activity against human A549 cells after 48 hrs by SRB assay; format: functional; settings: A549, 48 h
# DMS-273 = experiment: Antiproliferative activity against human DMS273 cells after 48 hrs by SRB assay; format: functional; settings: DMS-273, 48 h
# DMS-114 = experiment: Antiproliferative activity against human DMS114 cells after 48 hrs by SRB assay; format: functional; settings: DMS-114, 48 h
# OVCAR-3 = experiment: Antiproliferative activity against human OVCAR3 cells after 48 hrs by SRB assay; format: functional; settings: OVCAR-3, 48 h
# OVCAR-4 = experiment: Antiproliferative activity against human OVCAR4 cells after 48 hrs by SRB assay; format: functional; settings: OVCAR-4, 48 h
# OVCAR-5 = experiment: Antiproliferative activity against human OVCAR5 cells after 48 hrs by SRB assay; format: functional; settings: OVCAR-5, 48 h
# OVCAR-8 = experiment: Antiproliferative activity against human OVCAR8 cells after 48 hrs by SRB assay; format: functional; settings: OVCAR-8, 48 h
# RXF 631 = experiment: Antiproliferative activity against human RXF631L cells after 48 hrs by SRB assay; format: functional; settings: RXF 631, 48 h
# St-4 = experiment: Antiproliferative activity against human St-4 cells after 48 hrs by SRB assay; format: functional; settings: St-4, 48 h
# MKN-1 = experiment: Antiproliferative activity against human MKN1 cells after 48 hrs by SRB assay; format: functional; settings: MKN-1, 48 h
# MKN-7 = experiment: Antiproliferative activity against human MKN7 cells after 48 hrs by SRB assay; format: functional; settings: MKN-7, 48 h
# MKN-45 = experiment: Antiproliferative activity against human MKN45 cells after 48 hrs by SRB assay; format: functional; settings: MKN-45, 48 h
# MKN-74 = experiment: Antiproliferative activity against human MKN74 cells after 48 hrs by SRB assay; format: functional; settings: MKN-74, 48 h
# PC-3 = experiment: Antiproliferative activity against human PC3 cells after 48 hrs by SRB assay; format: functional; settings: PC-3, 48 h
# Colon 26 = experiment: Antitumor activity against mouse Colon 26 cells implanted in BALB/c mouse at 50 mg/kg, iv administered every 2 days for 7 times starting 1 day after tumor implantation and measured daily until day 20; format: functional, organism-based
structure (smiles),measurement,setting,value
COc1cc2c(ccc3c2[nH]c2c4cc(OC)c(O)cc4oc(=O)c32)cc1O,inhibition,[1],Active
same,inhibition,[2],Active
same,GI50,MCF7; read-out: GI50,68 nM
same,GI50,U-251; read-out: GI50,< 10 nM
same,GI50,HCT-116; read-out: GI50,88 nM
same,GI50,NCI-H522; read-out: GI50,< 10 nM
same,GI50,LOX IMVI; read-out: GI50,21 nM
same,GI50,SK-OV-3; read-out: GI50,330 nM
same,GI50,ACHN; read-out: GI50,110 nM
same,GI50,MKN-28; read-out: GI50,1600 nM
same,GI50,DU-145; read-out: GI50,51 nM
CC[C@@]1(O)C(=O)OCc2c1cc1n(c2=O)Cc2cc3ccccc3nc2-1,inhibition,[1],Active
same,inhibition,[2],Active
COc1cc2c(ccc3c4c(=O)oc5cc(O)c(OC)cc5c4n(CCN(C)C)c23)cc1O,inhibition,[1],Active
same,inhibition,[2],Active
same,GI50,MCF7; read-out: GI50,2.6 nM
same,GI50,U-251; read-out: GI50,4 nM
same,GI50,HCT-116; read-out: GI50,9.7 nM
same,GI50,NCI-H522; read-out: GI50,3.9 nM
same,GI50,LOX IMVI; read-out: GI50,2.7 nM
same,GI50,SK-OV-3; read-out: GI50,26 nM
same,GI50,ACHN; read-out: GI50,1.9 nM
same,GI50,MKN-28; read-out: GI50,67 nM
same,GI50,DU-145; read-out: GI50,2 nM
COc1cc2c(ccc3c4c(=O)oc5cc(O)c(OC)cc5c4n(C)c23)cc1O,inhibition,[1],Active
same,inhibition,[2],Active
same,GI50,[3],13.5 nM
same,GI50,[4],33.9 nM
same,GI50,[5],95.5 nM
same,GI50,MCF7; read-out: GI50,9.6 nM
same,GI50,MCF7; read-out: pGI50 (converted),9.55 nM
same,GI50,MDA-MB-231,115 nM
same,GI50,U-251; read-out: GI50,1.3 nM
same,GI50,U-251; read-out: pGI50 (converted),1.32 nM
same,GI50,SF-268,2.19 nM
same,GI50,SF-295,4.57 nM
same,GI50,SF-539,2.82 nM
same,GI50,SNB-75,8.13 nM
same,GI50,SNB-78,200 nM
same,GI50,HCC 2998,39.8 nM
same,GI50,KM12,46.8 nM
same,GI50,HT-29,3890 nM
same,GI50,HCT-15,162 nM
same,GI50,HCT-116; read-out: GI50,8.8 nM
same,GI50,HCT-116; read-out: pGI50 (converted),8.91 nM
same,GI50,NCI-H23,4.57 nM
same,GI50,NCI-H226,89.1 nM
same,GI50,NCI-H522; read-out: GI50,1.8 nM
same,GI50,NCI-H522; read-out: pGI50 (converted),1.82 nM
same,GI50,NCI-H460,2.14 nM
same,GI50,A549,4.17 nM
same,GI50,DMS-273,2.04 nM
same,GI50,DMS-114,3.89 nM
same,GI50,LOX IMVI; read-out: GI50,2.6 nM
same,GI50,LOX IMVI; read-out: pGI50 (converted),2.57 nM
same,GI50,OVCAR-3,39.8 nM
same,GI50,OVCAR-4,26.9 nM
same,GI50,OVCAR-5,79.4 nM
same,GI50,OVCAR-8,20.4 nM
same,GI50,SK-OV-3; read-out: GI50,9.4 nM
same,GI50,SK-OV-3; read-out: pGI50 (converted),9.33 nM
same,GI50,RXF 631,4680 nM
same,GI50,ACHN; read-out: GI50,< 1 nM
same,GI50,ACHN; read-out: pGI50 (converted),1 nM
same,GI50,St-4,10000 nM
same,GI50,MKN-1,37.1 nM
same,GI50,MKN-7,45.7 nM
same,GI50,MKN-28; read-out: GI50,33 nM
same,GI50,MKN-28; read-out: pGI50 (converted),33.1 nM
same,GI50,MKN-45,32.4 nM
same,GI50,MKN-74,52.5 nM
same,GI50,DU-145; read-out: GI50,2.5 nM
same,GI50,DU-145; read-out: pGI50 (converted),2.51 nM
same,GI50,PC-3,132 nM
CCc1c2c(nc3ccc(OC(=O)N4CCC(N5CCCCC5)CC4)cc13)-c1cc3c(c(=O)n1C2)COC(=O)[C@]3(O)CC,Activity,Colon 26,Active
COc1cc(-c2c3c4cc(OC)c(O)cc4oc(=O)c3n3ccc4cc(O)c(OC)cc4c23)ccc1O [LAMELLARIN D],inhibition,[1],Active
same,inhibition,[2],Active
same,GI50,MCF7; read-out: GI50,< 10 nM
same,GI50,U-251; read-out: GI50,< 10 nM
same,GI50,HCT-116; read-out: GI50,< 10 nM
same,GI50,NCI-H522; read-out: GI50,< 10 nM
same,GI50,LOX IMVI; read-out: GI50,< 10 nM
same,GI50,SK-OV-3; read-out: GI50,38 nM
same,GI50,ACHN; read-out: GI50,< 10 nM
same,GI50,MKN-28; read-out: GI50,50 nM
same,GI50,DU-145; read-out: GI50,< 10 nM
